Data set [1] can be described thus: Solubility of cocrystals and their constituents in organic solvents (shake-flask, HPLC). The following applies: for Ccc,3AcAmBA∙10^2, coformer concentration in equilibrium with cocrystal / Ccc,CBZ∙10^2, CBZ concentration in equilibrium with cocrystal / Ccc,4AcAmBA∙10^2, coformer concentration in equilibrium with cocrystal: value is C∙10^2. The protocol: For the [CBZ + 3AcAmBA] (1:1) cocrystal, methanol was used. For [CBZ + 4AcAmBA] (1:1), all the experiments were performed in acetonitrile. An excess of the solid was placed in an Eppendorf tube, and 2 mL of solvent was added. The resulting suspension was shaken in a ThermoMixer C (Eppendorf, Hamburg, Germany) at 800 rpm for 48 h at the specified temperature. Subsequently, the saturated solution was separated using a 0.22 μm PTEF filter, diluted, and analyzed using HPLC. The solid phases after the experiment were collected and characterized by PXRD. Each experiment was repeated three times.
The HPLC was performed on an LC-20 AD Shimadzu Prominence model (Shimadzu, Kyoto, Japan) equipped with a PDA detector and a Luna C-18 column (150 mm × 4.6 mm i.d., 5 μm particle size, and 100 Å pore size). The column temperature was set to 40 °C. To achieve the proper separation of the cocrystal components, different ratios of the mobile phase, consisting of acetonitrile and a 0.1% aqueous solution of trifluoroacetic acid (35:65 v/v), were used. The flow rate was 1.0 mL·min^−1, and the injection volume was 20 μL. The UV detection of carbamazepine, 2-acetamidobenzoic acid, 3-acetamidobenzoic acid, and 4-acetamidobenzoic acid was carried out at the wavelengths of 285 nm, 249 nm, 220 nm, and 266 nm, respectively.

Details of data set [2]: method as in doi:10.1016/j.molliq.2021.118320. The following applies: pH 2.0, 310.2 K; value belongs to the coformer of the cocrystal named in the row; ref [103]; cited from earlier work.
The format of data set [3] is physicochemical. The following applies: for Scc, solubility of the cocrystal: pH 2; for [CF]eu, eutectic concentration of coformer / [CBZ]eu, eutectic concentration of CBZ / Keu, eutectic constant: pH 2.0, 310.2 K; for [CF]eu, eutectic concentration of coformer: eutectic point; for [CBZ]eu, eutectic concentration of CBZ: eutectic point (drug and cocrystal in equilibrium with solution); for Keu, eutectic constant: Keu = [CF]eu/[CBZ]eu. The protocol: The saturation shake-flask method was used to measure the aqueous solubility of the CBZ cocrystals in a pH 2.0 buffer solution at the eutectic point, where drug and cocrystal are in equilibrium with the solution. The eutectic point between the cocrystal and the drug was reached by suspending 80 mg of the cocrystal and 30 mg of CBZ in 2 mL of the buffer solution. The obtained suspension was stirred continuously for 72 h at 37.0 ± 0.1 °C. After equilibration, the final pH of the solution was measured. The suspension was diluted with the mobile phase after being filtered through a […] PTEF filter. Concentrations of compounds were analyzed by HPLC. The solid phases after the experiment were characterized by PXRD.
The column temperature was set to 40 °C.

The nature of data set [4]: Preliminary solution stability (congruent/incongruent dissolution) in organic solvents, PXRD of residual phases. The format is physicochemical. The text has this: The most convenient way to determine the solubility product of a cocrystal is to ensure that the solution and the cocrystal are at thermodynamic equilibrium, i.e., that the cocrystal is congruently soluble in the chosen solvent. In this work, acetonitrile was primarily utilized as a medium to carry out solubility experiments. […] (1:1) and [CBZ + 3AcAmBA] […] In the case of [CBZ + 3AcAmBA] (1:1), incongruent solubility of the cocrystal was expected given the high solubility ratio of the components in acetonitrile (Table S6). This is likely to result in an asymmetric ternary phase diagram with a narrow stability region for the [CBZ + 3AcAmBA] (1:1) cocrystal. […] It is reasonable to assume that the poor solution stability of the [CBZ + 2AcAmBA] (1:1) cocrystal is not due to the large solubility difference between CBZ and 2AcAmBA but rather because of the low intrinsic thermodynamic stability of the binary solid form caused by the lack of energy gain associated with cocrystal formation, which leads to a higher solubility in all solvents considered. […] (1:1) cocrystal compared to the parent pure components (~40 °C, Figure S2), implicitly corroborate this supposition. Since no suitable solvent for solubility studies of [CBZ + 2AcAmBA] (1:1) could be found, this system was not further explored. The [CBZ + 3AcAmBA]

Data set [5] can be described thus: Cocrystal formation thermodynamics from solubility data (Kf, ΔformG, ΔformH, ΔformS). The format is physicochemical. The following applies: for ΔformH: van't Hoff, 293.15-313.15 K. An excerpt: It is known that the relative stability of a cocrystal with respect to a physical mixture of the parent constituents at a given temperature can be quantitatively expressed in terms of the free-energy change, ΔformG, of the cocrystallization reaction. Analyzing the temperature dependence of the Gibbs formation energy can provide further information on the enthalpy and entropy contributions to the driving force of the process as well as help to estimate the thermodynamic transition temperature, which determines the stability domains of a cocrystal and its individual constituents. The experimental assessment of ΔformG is based on solubility data for the starting molecules and the corresponding cocrystal in the same solvent at a predetermined temperature using the equation below:(3) ΔformG=−RTlnap,Ax×ap,By/acc,Ax×acc,By=−RTlnap,Ax×ap,By/Ksp=−RTlnKf, where ap,A and ap,B represent the activities of pure A and B compounds in a saturated solution; acc,A and acc,B are the activities of the cocrystal components in a solution, in equilibrium with pure cocrystal; Ksp is the solubility product of a cocrystal; T is the temperature; x and y are the stoichiometric coefficients; and Kf is an equilibrium constant at the experimental temperature.
Using the van’t Hoff expression, the enthalpy of the cocrystallization process, ΔformH, may be estimated by evaluating the Kf values at various temperatures (assuming that ΔformH is a constant within the selected temperature range):(4) dlnKf/d(1/T)=−ΔformH/R
The entropy of cocrystal formation, ΔformS, can be estimated from (5) ΔformS=ΔformH−ΔformG/T
Even though the activities in Equation (3) are usually approximated by the corresponding molar concentration while neglecting the activity coefficients, a more valid approximation implies that the activity coefficients for the two solute species are constant along the cocrystal solubility line and equal to the activity coefficients of the pure components in the saturated solutions in the same solvent and temperature. […] Table S5 contains the solubility values of CBZ, coformers, and the CBZ cocrystals with emodin, paeonol, nicotinamide, and glutaric acid in various organic solvents.

Setting [6] is: 298.2K, listed as [CBZ+3AcAmBA] (1:1).
Where [7] appears, read: 298.2K, listed as [CBZ+4AcAmBA] (1:1).

What is called solubility is how much of the substance goes into solution per volume. For the compound `CC(=O)Nc1ccccc1C(=O)O` [Cocrystal 2AcAmBA, 2-acetamidobenzoic acid], the “solubility ratio Cp,CBZ/Cp,coformer” value in data set [1] (Acetonitrile, Table S6) was determined as 5.7. Also, the solubility at 48 h in data set [1] (acetonitrile, 20 °C, organic solvent or mixture, thermodynamic from solid) came to 25 ± 0.8 mM. The “S0(CF), intrinsic solubility of coformer” value in data set [2] is 0.0115 mol/L.

For `CC(=O)Nc1ccccc1C(=O)O.NC(=O)N1c2ccccc2C=Cc2ccccc21` [[CBZ + 2AcAmBA] (1:1)], in data set [3], the “Scc, solubility of the cocrystal” value is “(2.8 ± 0.1)·10^−3 Mol·L^−1”; the “[CF]eu, eutectic concentration of coformer” value (shortened to “[CF]eu … of coformer”) is “(7.5 ± 0.1)·10^−3 Mol·L^−1”; the “[CBZ]eu, eutectic concentration of CBZ” value was “(1.10 ± 0.06)·10^−3 Mol·L^−1”; the “Keu, eutectic constant” value was 6.8 ± 0.4. The “dissolution behaviour / solution stability” value in data set [4] (acetonitrile) is on record as “dissolved incongruently”. The “dissolution behaviour / solution stability” value in data set [4] (several other tested solvents, including methanol, ethanol, and acetone) was “incongruent behavior”.

With `CC(=O)Nc1cccc(C(=O)O)c1.NC(=O)N1c2ccccc2C=Cc2ccccc21` [[CBZ + 3AcAmBA] (1:1)], the “Scc, solubility of the cocrystal” value in data set [3] is on record as “(1.30 ± 0.03)·10^−3 Mol·L^−1”. The “[CF]eu … of coformer” value in data set [3] was “(1.75 ± 0.08)·10^−3 Mol·L^−1”. Besides, in data set [3], the “[CBZ]eu, eutectic concentration of CBZ” value is listed as “(9.8 ± 0.2)·10^−4 Mol·L^−1”. Also, the “Keu, eutectic constant” value in data set [3] stood at 1.8 ± 0.1. Moreover, the “Ccc,3AcAmBA∙10^2, coformer concentration in equilibrium with cocrystal” value in data set [1] (methanol, 293.15 K) worked out at 7.0±0.1 mol/l; in data set [1] (methanol, 298.15 K), 8.1±0.1 mol/l; in data set [1] (methanol, 303.15 K), 9.5±0.1 mol/l; in data set [1] (methanol, 308.15 K) it was 11.1±0.06 mol/l; in data set [1] (methanol, 313.15 K), 12.5±0.07 mol/l. The “Ccc,CBZ∙10^2, CBZ concentration in equilibrium with cocrystal” value in data set [1] (methanol, 293.15 K) is on record as 7.00±0.06 mol/l; in data set [1] (methanol, 298.15 K) it was 8.20±0.10 mol/l; in data set [1] (methanol, 303.15 K), 9.50±0.08 mol/l; in data set [1] (methanol, 308.15 K), 11.00±0.08 mol/l; in data set [1] (methanol, 313.15 K) it was 12.10±0.08 mol/l. In addition, the “T·ΔformS” value in data set [5] (298.2K) and in data set [5] (setting [6]) was -3.8 ± 0.5 kJ/mol throughout. For the same compound, the lnKf is recorded as 1.17 ± 0.02 in data set [5] (298.2K); 1.20±0.02 in data set [5] (methanol, 293.15 K); 1.17±0.02 in data set [5] (methanol, 298.15 K); 1.12±0.02 in data set [5] (methanol, 303.15 K); 1.06±0.015 in data set [5] (methanol, 308.15 K); 1.04±0.02 in data set [5] (methanol, 313.15 K). Further, the ΔformG in data set [5] (298.2K) and in data set [5] (setting [6]) was -2.91 ± 0.05 kJ/mol in each case. Moreover, the ΔformH in data set [5] (298.2K) and in data set [5] (setting [6]) was -6.7 ± 0.5 kJ/mol each time. In addition, the “∆formG” value was -2.93 ± 0.05 kJ/mol in data set [5] (methanol, 293.15 K); -2.91 ± 0.05 kJ/mol in data set [5] (methanol, 298.15 K); -2.83 ± 0.05 kJ/mol in data set [5] (methanol, 303.15 K); -2.72 ± 0.04 kJ/mol in data set [5] (methanol, 308.15 K); -2.69 ± 0.03 kJ/mol in data set [5] (methanol, 313.15 K). The “dissolution behaviour / solution stability” value was “dissolved incongruently” in data set [4] (acetonitrile) and “dissolve congruently” in data set [4] (methanol).

For `CC(=O)Nc1ccc(C(=O)O)cc1.NC(=O)N1c2ccccc2C=Cc2ccccc21` [[CBZ + 4AcAmBA] (1:1)], the “Scc, solubility of the cocrystal” value in data set [3] is “(0.80 ± 0.02)·10^−3 Mol·L^−1”. Also, the “[CF]eu … of coformer” value in data set [3] is listed as “(6.4 ± 0.2)·10^−4 Mol·L^−1”. In addition, in data set [3], the “[CBZ]eu, eutectic concentration of CBZ” value was “(1.00 ± 0.05)·10^−3 Mol·L^−1”. Besides, the “Keu, eutectic constant” value in data set [3] came to 0.64 ± 0.04. In addition, the “Ccc,4AcAmBA∙10^2, coformer concentration in equilibrium with cocrystal” value in data set [1] (acetonitrile, 293.15 K) came out at 0.880±0.016 mol/l; in data set [1] (acetonitrile, 298.15 K), 1.046±0.010 mol/l; in data set [1] (acetonitrile, 303.15 K), 1.222±0.017 mol/l; in data set [1] (acetonitrile, 308.15 K), 1.472±0.008 mol/l; in data set [1] (acetonitrile, 313.15 K) it was 1.707±0.030 mol/l. For the same compound, the “Ccc,CBZ∙10^2, CBZ concentration in equilibrium with cocrystal” value in data set [1] (acetonitrile, 293.15 K) stood at 0.875±0.014 mol/l; in data set [1] (acetonitrile, 298.15 K), 1.013±0.015 mol/l; in data set [1] (acetonitrile, 303.15 K), 1.198±0.007 mol/l; in data set [1] (acetonitrile, 308.15 K), 1.428±0.009 mol/l; in data set [1] (acetonitrile, 313.15 K) it was 1.684±0.022 mol/l. The “T·ΔformS” value in data set [5] (298.2K) and in data set [5] (setting [7]) was -2.4 ± 0.6 kJ/mol in each case. In addition, the lnKf in data set [5] (298.2K) worked out at 2.86 ± 0.03; in data set [5] (acetonitrile, 293.15 K) it was 2.93±0.04; in data set [5] (acetonitrile, 298.15 K), 2.86±0.03; in data set [5] (acetonitrile, 303.15 K), 2.82±0.03; in data set [5] (acetonitrile, 308.15 K), 2.75±0.02; in data set [5] (acetonitrile, 313.15 K) it was 2.67±0.03. The ΔformG in data set [5] (298.2K) and in data set [5] (setting [7]) was -7.09 ± 0.08 kJ/mol in each case. The ΔformH in data set [5] (298.2K) and in data set [5] (setting [7]) was -9.5 ± 0.6 kJ/mol throughout. Further, the “∆formG” value in data set [5] (acetonitrile, 293.15 K) is -7.13 ± 0.09 kJ/mol; in data set [5] (acetonitrile, 298.15 K), -7.09 ± 0.08 kJ/mol; in data set [5] (acetonitrile, 303.15 K) it was -7.10 ± 0.07 kJ/mol; in data set [5] (acetonitrile, 308.15 K), -7.04 ± 0.05 kJ/mol; in data set [5] (acetonitrile, 313.15 K), -6.95 ± 0.08 kJ/mol.

These data come from publication PMC10052035, “Virtual Screening, Structural Analysis, and Formation Thermodynamics of Carbamazepine Cocrystals” (Pharmaceutics, 2023).
